Laboratory results as given in ChEMBL document CHEMBL1153608, “Synthesis, antimalarial evaluation and molecular modeling studies of hydroxyethylpiperazines, potential aspartyl protease inhibitors, part 2” (Eur J Med Chem, 2009).

Legend:
Plasmodium falciparum [1] = assay: Antimalarial activity against Plasmodium falciparum W2 by [3H]hypoxanthine uptake; type: functional, organism-based
[2] = Cytotoxicity against mouse J774 cells assessed as cell viability at 0.1 ug/mL after 24 hrs by MTT assay; type: cell-based; conditions: read-out: Activity
[3] = Cytotoxicity against mouse J774 cells assessed as cell viability at 1 ug/mL after 24 hrs by MTT assay; type: cell-based; conditions: read-out: Activity
[4] = Cytotoxicity against mouse J774 cells assessed as cell viability at 10 ug/mL after 24 hrs by MTT assay; type: cell-based; conditions: read-out: Activity
[5] = Cytotoxicity against mouse J774 cells assessed as cell viability at 100 ug/mL after 24 hrs by MTT assay; type: cell-based; conditions: read-out: Activity
Plasmodium falciparum [6] = assay: Antimalarial activity against chloroquine-sensitive Plasmodium falciparum 3D7 by [3H]hypoxanthine uptake; type: functional, organism-based

| IC50 (Plasmodium falciparum [1]) [µM] | SMILES | viability at 24 h, 0.1 ug/mL [2] [%] | viability at 24 h, 1 ug/mL [3] [%] | viability at 24 h, 10 ug/mL [4] [%] | viability at 24 h, 100 ug/mL [5] [%] | IC50 (Plasmodium falciparum [6]) [µM] |
| --- | --- | --- | --- | --- | --- | --- |
| > 90 | Cc1ccc(S(=O)(=O)N[C@@H](Cc2ccccc2)[C@H](O)CN2CCN(Cc3ccc([N+](=O)[O-])cc3)CC2)cc1 | 91 | 100 | 93 | 92 | – |
| 44 | O=[N+]([O-])c1ccc(S(=O)(=O)N[C@@H](Cc2ccccc2)[C@H](O)CN2CCN(Cc3ccc4c(c3)OCO4)CC2)cc1 | 100 | 100 | 100 | 40 | – |
| 35.1 | Cc1ccc(S(=O)(=O)N[C@@H](Cc2ccccc2)[C@H](O)CN2CCN(Cc3ccc(Cl)cc3)CC2)cc1 | 100 | 98 | 90 | 22 | – |
| 25.4 | O=C(N[C@@H](Cc1ccccc1)[C@H](O)CN1CCN(Cc2ccc3c(c2)OCO3)CC1)c1ccc2c(c1)OCO2 | 100 | 100 | 95 | 61 | – |
| 43 | Cc1ccc(S(=O)(=O)N[C@@H](Cc2ccccc2)[C@H](O)CN2CCN(Cc3ccc(F)cc3)CC2)cc1 | 100 | 100 | 92 | 15 | – |
| 5.9 | Cc1c(O)cccc1C(=O)N[C@@H](Cc1ccccc1)[C@H](O)CN1CCN(Cc2ccc3c(c2)OCO3)CC1 | 100 | 75 | 8 | 8 | – |
| > 90 | Cc1ccc(S(=O)(=O)N[C@@H](Cc2ccccc2)[C@H](O)CN2CCN(Cc3ccccc3)CC2)cc1 | 100 | 86 | 88 | 5 | – |
| 34.3 | COc1ccc(S(=O)(=O)N[C@@H](Cc2ccccc2)[C@H](O)CN2CCN(Cc3ccc4c(c3)OCO4)CC2)cc1 | 100 | 99 | 90 | 12 | – |
| 55.5 | O=C(N[C@@H](Cc1ccccc1)[C@H](O)CN1CCN(Cc2ccc3c(c2)OCO3)CC1)c1c(Cl)cccc1Cl | 100 | 90 | 84 | 43 | – |
| 5.6 | O=S(=O)(N[C@@H](Cc1ccccc1)[C@H](O)CN1CCN(Cc2ccc3c(c2)OCO3)CC1)c1ccc(Br)cc1 | 100 | 100 | 96 | 5 | 5.7 |
| 69.4 | O=C(N[C@@H](Cc1ccccc1)[C@H](O)CN1CCN(Cc2ccc3c(c2)OCO3)CC1)c1ccccc1 | 100 | 100 | 91 | 38 | – |
| 47.2 | O=C(N[C@@H](Cc1ccccc1)[C@H](O)CN1CCN(Cc2ccc3c(c2)OCO3)CC1)c1cc(Cl)cc(Cl)c1 | 98 | 100 | 98 | 93 | – |
| > 90 | Cc1ccc(S(=O)(=O)N[C@@H](Cc2ccccc2)[C@H](O)CN2CCN(Cc3ccc(N)cc3)CC2)cc1 | 100 | 90 | 77 | 10 | – |
| 47.4 | O=C(N[C@@H](Cc1ccccc1)[C@H](O)CN1CCN(Cc2ccc3c(c2)OCO3)CC1)c1c(F)cccc1F | 85 | 87 | 83 | 51 | – |
| > 90 | COc1ccc(CN2CCN(C[C@@H](O)[C@H](Cc3ccccc3)NS(=O)(=O)c3ccc(C)cc3)CC2)cc1OC | 100 | 100 | 92 | 9 | – |
| 42.5 | O=S(=O)(N[C@@H](Cc1ccccc1)[C@H](O)CN1CCN(Cc2ccc3c(c2)OCO3)CC1)c1ccc(F)cc1 | 100 | 94 | 83 | 4 | – |
| > 90 | COc1ccc(CN2CCN(C[C@@H](O)[C@H](Cc3ccccc3)NS(=O)(=O)c3ccc(C)cc3)CC2)cc1 | 100 | 90 | 84 | 6 | – |
| 16.9 | Cc1ccc(S(=O)(=O)N[C@@H](Cc2ccccc2)[C@H](O)CN2CCN(Cc3ccc4c(c3)OCO4)CC2)cc1 | 100 | 100 | 98 | 49 | – |

| SMILES | IC50 (Plasmodium falciparum [1]) [µM] | viability at 24 h, 0.1 ug/mL [2] [%] | viability at 24 h, 1 ug/mL [3] [%] | viability at 24 h, 10 ug/mL [4] [%] | viability at 24 h, 100 ug/mL [5] [%] | IC50 (Plasmodium falciparum [6]) [µM] |
| --- | --- | --- | --- | --- | --- | --- |
| Nc1ccc(S(=O)(=O)N[C@@H](Cc2ccccc2)[C@H](O)CN2CCN(Cc3ccc4c(c3)OCO4)CC2)cc1 | 4.8 | 100 | 100 | 99 | 55 | 4.6 |
